Earlier results in patent US8278291B1, “Treatment of wrinkles and strias with 4-hydroxyandrostenedione or a derivative thereof” (Curadis GmbH, priority 1999, dated 2012).

Tests used:
5-alpha-reductase = details: described in the literature, higher concentrations
aromatase = target: T1, aromatase (Homo sapiens, UniProt P11511); details: described in the literature
T1 sequence (P11511 1-503): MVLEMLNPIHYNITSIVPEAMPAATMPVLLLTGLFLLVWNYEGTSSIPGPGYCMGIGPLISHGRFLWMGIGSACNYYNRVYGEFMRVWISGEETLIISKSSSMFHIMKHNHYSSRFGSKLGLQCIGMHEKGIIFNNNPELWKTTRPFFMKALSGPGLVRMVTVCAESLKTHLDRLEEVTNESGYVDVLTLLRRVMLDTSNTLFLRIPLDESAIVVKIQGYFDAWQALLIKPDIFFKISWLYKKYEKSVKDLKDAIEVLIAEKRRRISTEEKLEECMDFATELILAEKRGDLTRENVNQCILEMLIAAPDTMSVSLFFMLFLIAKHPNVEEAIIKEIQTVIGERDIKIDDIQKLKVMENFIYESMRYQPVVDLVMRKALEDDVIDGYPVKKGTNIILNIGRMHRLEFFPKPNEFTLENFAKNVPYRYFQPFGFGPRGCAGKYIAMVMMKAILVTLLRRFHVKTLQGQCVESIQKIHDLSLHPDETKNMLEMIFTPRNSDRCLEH

[1] = applied to the head of monkeys over 27 weeks, versus untreated individuals, Rittmaster 1987
sebaceous gland = details: topical, male fuzzy rat, Ye 1997

C[C@]12CCC(=O)C(O)=C1CC[C@@H]1[C@@H]2CC[C@]2(C)C(=O)CC[C@@H]12 [4-hydroxyandrostendione, 4-hydroxyandrost-4-ene-3,17-dione]
concentration that can also inhibit 5-alpha-reductase (5-alpha-reductase): 3 micro mole/L | critical concentration for aromatase (aromatase): about 3 nano mole/L

CCN(CC)C(=O)[C@H]1CC[C@H]2[C@@H]3CC[C@H]4N(C)C(=O)CC[C@]4(C)[C@H]3CC[C@]12C [Example 4-MA, 17-beta-N,N-diethylcarbamoyl-4-methyl-4-aza-5-alpha-androstan-3-one]
signs of boldness [1]: did not have any signs of a boldness

CC(C)(C)NC(=O)[C@H]1CC[C@H]2[C@@H]3CC[C@H]4NC(=O)C=C[C@]4(C)[C@H]3CC[C@]12C [Finasterid, N-tert-butyl-3-oxo-4-aza-5α-androst-1-ene-17-β-carboxamide]
effect in the sebaceous gland model compared with MK 386 (sebaceous gland): little more effective than MK 386 | effect in the sebaceous gland model compared with RU58841 (sebaceous gland): much lower effects

CC(C)CCC[C@@H](C)[C@H]1CC[C@H]2[C@@H]3[C@@H](C)C[C@H]4N(C)C(=O)CC[C@]4(C)[C@H]3CC[C@]12C [MK 386, 4,7-beta-dimethyl-4-azacholestane-3-one]
effect in the sebaceous gland model compared with RU58841 (sebaceous gland): much lower effects
